This is an account of results in ChEMBL document CHEMBL1131968, “P'-extended alpha-ketoamide inhibitors of proteasome” (Bioorg Med Chem Lett, 1999).

SMILES strings stand for the structures.

One experiment has as its system Proteasome. The experiment is described as follows: Inhibitory activity against proteasome at 10 uM concentration. In kind it is subcellular.
Regarding `N[C@@H](Cc1ccccc1)C(=O)C(=O)NCCNS(=O)(=O)c1ccccc1`, the inhibition worked out at 12%.

The molecule `CC(C)(C)OC(=O)N[C@@H](Cc1ccccc1)C(=O)C(=O)NCCNS(=O)(=O)c1ccccc1` registered an inhibition of 14%.

For the next experiment, the target named is Proteasome. The experiment is described as follows: Inhibitory activity against proteasome. Type of experiment: subcellular.
Turning to `NCCCC[C@H](NC(=O)C(CCCCCCCCN1C(=O)c2ccccc2C1=O)C1CCCC1)C(=O)N[C@@H](Cc1ccccc1)C(=O)C(=O)NCCNS(=O)(=O)c1ccccc1` (stereo partly drawn), the Ki is 22 nM.

`N/C(=N\CCC[C@H](NC(=O)C(CCCCCCCCN1C(=O)c2ccccc2C1=O)C1CCCC1)C(=O)N[C@@H](Cc1ccccc1)C(=O)C(=O)NCCNS(=O)(=O)c1ccccc1)N[N+](=O)[O-]` (stereo partly drawn): the affinity, expressed as Ki, was 1.1 nM.

On to `CC(C)(C)OC(=O)NCCNC(=O)C(=O)[C@H](Cc1ccccc1)NC(=O)[C@H](CCC/N=C(\N)N[N+](=O)[O-])NC(=O)C(CCCCCCCCN1C(=O)c2ccccc2C1=O)C1CCCC1` (stereo partly drawn), for which the inhibition constant (Ki) is 2.2 nM.

`CCNC(=O)C(=O)[C@H](Cc1ccccc1)NC(=O)[C@H](CCC/N=C(\N)N[N+](=O)[O-])NC(=O)C(CCCCCCCCN1C(=O)c2ccccc2C1=O)C1CCCC1` (stereo partly drawn) had a Ki of 12 nM.

Molecule `NCCNC(=O)C(=O)[C@H](Cc1ccccc1)NC(=O)[C@H](CCC/N=C(\N)N[N+](=O)[O-])NC(=O)C(CCCCCCCCN1C(=O)c2ccccc2C1=O)C1CCCC1` (stereo partly drawn) returned an inhibition constant Ki of 67 nM.

Regarding `CS(=O)(=O)NCCCC[C@H](NC(=O)C(CCCCCCCCN1C(=O)c2ccccc2C1=O)C1CCCC1)C(=O)N[C@@H](Cc1ccccc1)C(=O)C(=O)NCCNS(=O)(=O)c1ccccc1` (stereo partly drawn), affinity was put at a Ki of 41 nM.

`O=C(NCCNS(=O)(=O)c1ccccc1)C(=O)[C@H](Cc1ccccc1)NC(=O)[C@H](CCCCNC(=O)c1cnccn1)NC(=O)C(CCCCCCCCN1C(=O)c2ccccc2C1=O)C1CCCC1` (stereo partly drawn) came in with a Ki of 80 nM.

The test system of another experiment is Proteasome. Nature of the experiment: Inhibitory activity against proteasome at 100 nM concentration. Type of experiment: subcellular.
The molecule `CC(C)(C)OC(=O)/N=C(\NCCC[C@H](NC(=O)C(CCCCCCCCN1C(=O)c2ccccc2C1=O)C1CCCC1)C(=O)N[C@@H](Cc1ccccc1)C(=O)C(=O)NCCNS(=O)(=O)c1ccccc1)NC(=O)OC(C)(C)C` (stereo partly drawn) registered an inhibition of 34%.

In turn, `CC(C)(C)OC(=O)NCCCC[C@H](NC(=O)C(CCCCCCCCN1C(=O)c2ccccc2C1=O)C1CCCC1)C(=O)N[C@@H](Cc1ccccc1)C(=O)C(=O)NCCNS(=O)(=O)c1ccccc1` (stereo partly drawn) showed an inhibition of 48%.

`N=C(N)NCCC[C@H](NC(=O)C(CCCCCCCCN1C(=O)c2ccccc2C1=O)C1CCCC1)C(=O)N[C@@H](Cc1ccccc1)C(=O)C(=O)NCCNS(=O)(=O)c1ccccc1` (stereo partly drawn) had an inhibition of 31%.

Another experiment relates to Proteasome. The experiment is described as follows: Inhibitory activity against proteasome at 1 uM concentration. In kind it is subcellular.
`N/C(=N/CCCC(NC(=O)OCc1ccccc1)C(=O)N[C@@H](Cc1ccccc1)C(=O)C(=O)NCCNS(=O)(=O)c1ccccc1)N[N+](=O)[O-]` (stereo partly drawn) displayed an inhibition of 34%.

For orientation: inhibition means the relative decrease from the control value, in per cent. Low readings indicate a weak effect, high ones a strong effect. What is called Ki is a measure of affinity in units of concentration, obtained from inhibition or displacement. A higher Ki goes with lower affinity.
